In publication PMC11988454, “Discovery of synthetic small molecules targeting the central regulator of Salmonella pathogenicity” (Science Advances, 2025):

Tests used:
[1] = tested on: T3SS-1 (SipA secretion); assay: SipA-NLuc secretion assay (NanoLuc luciferase); assay type: cell-based, S. Typhimurium; settings: Salmonella enterica, read-out: IC50 SipA secretion
Description: (A) NanoLuc Luciferase assay to screen T3SS-1 inhibitors in 384-well plates. Compounds were screened at a final concentration of 100 μM (N = 3 replicates). Cultures with strains sipA-NLuc and ΔinvA, sipA-NLuc with 1% (v/v) DMSO were used as positive and negative controls, respectively. […] 100% relative SipA secretion corresponds to the luminescence intensity of the WT strain grown in the presence of 1% (v/v) DMSO. The relative SipA secretion of the ∆invA mutant was considered as the bottom (N = 2 technical replicates within N = 3 biological replicates).
For compound screening, 50 μl of overnight cultures of Salmonella with an approximate optical density at 600 nm (OD600) of 2 were diluted in fresh LB medium to an OD600 of 0.05 and added to 384-well plates (Nunc MaxiSorp, white) containing 5 nmol of screening compound per well, for a final compound concentration of 100 μM. The plates were incubated for 5 hours at 37°C with shaking at 180 rpm, upon which the bacteria were removed. The plates were washed with phosphate-buffered saline (PBS) [137 mM NaCl, 2.7 mM KCl, 10 mM Na2HPO4, and 1.8 mM KH2PO4 (pH 7.4)] using a Tecan HydroSpeed plate washer. Residual PBS after washing was removed, and 50 μl of NanoLuc working solution (NanoGlo, Promega) was added to the wells. Luminescence was then measured using a Tecan Sparc Multimode reader. […]

[2] = tested on: HeLa cells; assay: In vitro toxicity, ApoTox-Glo assay; assay type: cell-based
[3] = target: T1, HilD (Salmonella typhimurium, UniProt P0CL08); assay: nanoDSF thermal stability, HilD; assay type: binding, S. Typhimurium
T1 construct: His6-SUMO (N, cleaved yes); made in house; host or cells: E. coli C41(DE3)
T1 sequence (P0CL08 whole entry): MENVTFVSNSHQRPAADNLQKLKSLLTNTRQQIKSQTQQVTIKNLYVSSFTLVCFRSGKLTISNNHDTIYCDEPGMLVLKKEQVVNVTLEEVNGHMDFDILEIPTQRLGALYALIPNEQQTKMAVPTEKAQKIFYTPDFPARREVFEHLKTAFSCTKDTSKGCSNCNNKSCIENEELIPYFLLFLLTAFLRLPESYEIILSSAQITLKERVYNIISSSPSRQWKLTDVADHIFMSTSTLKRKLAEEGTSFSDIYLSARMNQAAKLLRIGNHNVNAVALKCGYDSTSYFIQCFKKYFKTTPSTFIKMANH
Description: (§1) Thermal stability of proteins was determined using nanoDSF, with runs performed on a Prometheus NT.48 (NanoTemper Technologies). A twofold serial dilution series of C26 was prepared in DMSO. C26 was added to HilD or HilC (5 μM) in SEC buffer, giving a final DMSO concentration of 1% (v/v). Samples were incubated for >20 min at r.t. and centrifuged for 2 min prior to loading of standard capillaries (no. PR-C002). Samples were heated from 20° to 80°C with a temperature gradient of 0.5°C min^−1. Melting temperatures were calculated from changes in the fluorescence ratio (350/330 nm), using PR.Stability Analysis v1.0.3 and a temperature range of 40° to 70°C for curve fitting. Data analysis was performed using Prism 8.4 (GraphPad). The change in HilD melting temperature, Tm, was fitted as a function of ligand concentration, using Eqs. 1 and 2 to yield apparent affinity (Kd,app) values Tm{[L]0}=Tm,lower+(Tm,upper−Tm,lower)*(1−α{[L]0}) (1) α{[L]0}=[P]t−Kd−[L]t+{[P]t+[L]t+Kd,app}^2−{4[P]t[L]t}/2[P]t (2) where [P]t and [L]t are the total protein and ligand concentrations, respectively.

[4] = target: T2, HilC (Salmonella typhimurium, UniProt E1WAB2); assay: nanoDSF thermal stability, HilC; assay type: binding, S. Typhimurium
T2 construct: His6 followed by TEV protease cleavage site (N, cleaved yes); made in house; host or cells: E. coli C41(DE3)
T2 sequence (E1WAB2 whole entry): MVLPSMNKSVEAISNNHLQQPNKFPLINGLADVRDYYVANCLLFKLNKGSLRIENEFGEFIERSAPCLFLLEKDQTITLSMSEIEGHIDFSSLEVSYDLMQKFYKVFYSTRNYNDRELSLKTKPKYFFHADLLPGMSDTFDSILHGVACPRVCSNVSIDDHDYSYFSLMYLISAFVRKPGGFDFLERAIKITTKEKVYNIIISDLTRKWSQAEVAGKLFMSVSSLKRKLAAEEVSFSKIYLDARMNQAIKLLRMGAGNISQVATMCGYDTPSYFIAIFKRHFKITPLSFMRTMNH
Description: as §1

[5] = tested on: HilC and RtsA; assay: Whole-cell PhilA activation by rhamnose-induced hilC or rtsA in ΔhilD backgrounds; assay type: cell-based, S. Typhimurium; settings: C26 100 μM, rhamnose 2 mM
Text: Next, we investigated the selectivity of C26 for HilD using the whole-cell PhilA activation assay. In the absence of HilD, the pool of HilC and RtsA is insufficient to activate the expression of hilA. Therefore, assessing the sensitivity of HilC and RtsA to C26 requires PhilA to be activated in a HilD-independent manner. To create such a condition, we used a plasmid-encoded hilC or rtsA under the control of a rhamnose-inducible promoter.
A whole-cell reporter gene assay was used to quantify HilD transcriptional activity. Strain PhilA-sfGFP and the isogenic ΔhilD PhilA-sfGFP were used for this purpose. Cultures were performed in 1 ml of LB supplemented with 0.3 M NaCl. Compounds at different concentrations or 1% (v/v) DMSO were added to the corresponding tubes. Cultures were incubated at 37°C and 180 rpm for 5 hours. Cells were pelleted, resuspended in 100 μl of PBS, and then transferred into a 96-well black clear-bottom plate (Thermo Fisher Scientific, USA). Fluorescence intensity was measured with a Tecan Spark microplate reader with an excitation wavelength of 485 nm and an emission wavelength of 510 nm. Dose-response curves and IC50 values were calculated using CDD Vault.

[6] = target: T1, HilD; assay: EMSA, binding to hilA promoter, HilD; assay type: biochemical, S. Typhimurium
Description: (§2) EMSAs were performed similarly to as described previously ([39]) using a 62–base pair double-stranded (dsDNA) fragment of the hilA promoter, encompassing the A1 binding site ([82]). dsDNA fragments were generated by melting the complementary primers PhilA_A1_f / PhilA_A1_r (table S10) together in TE buffer [10 mM Tris (pH 8.0) and 1 mM EDTA] at 95°C for 10 min before slowly cooling to r.t. The forward primer was modified with a 5′-Cy5 fluorescent dye for detection. The protein (600 nM) was incubated with 50 nM labeled DNA in EMSA buffer [20 mM Tris (pH 8.0), 100 mM KCl, 100 μM EDTA, and 3% glycerol]. C26 was diluted first in DMSO and subsequently 1:100 into the protein-DNA sample. Samples were incubated at 37°C for 15 min, supplemented with diluted DNA loading dye, and separated on a 1.5-mm-thick, 6% (w/v) TBE polyacrylamide gel at 6°C at a constant voltage of 100 V. Gels were imaged using a ChemiDocMP imaging system (Bio-Rad).

[7] = target: T2, HilC; assay: EMSA, binding to hilA promoter, HilC; assay type: biochemical, S. Typhimurium
Description: as §2

[8] = target: T3, HilD mutants (Salmonella typhimurium, UniProt P0CL08, I100A); assay: EMSA, binding of HilD mutants to PhilA; assay type: biochemical, S. Typhimurium; settings: 600 nM protein
T3 construct: His6-SUMO (N, cleaved yes); made in house; host or cells: E. coli C41(DE3)
T3 sequence (P0CL08 whole entry I100A): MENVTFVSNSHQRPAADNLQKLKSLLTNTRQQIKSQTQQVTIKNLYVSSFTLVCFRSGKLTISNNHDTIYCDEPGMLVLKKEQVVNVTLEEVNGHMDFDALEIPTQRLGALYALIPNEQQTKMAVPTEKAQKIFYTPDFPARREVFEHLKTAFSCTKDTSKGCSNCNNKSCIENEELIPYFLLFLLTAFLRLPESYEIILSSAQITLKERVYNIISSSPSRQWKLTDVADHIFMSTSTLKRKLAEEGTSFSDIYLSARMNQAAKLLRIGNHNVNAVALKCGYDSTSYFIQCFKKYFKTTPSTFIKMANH
Description: (§3) (F) EMSAs showing the binding of 600 nM HilDWT, HilDL45A, HilDY46A, HilDI100A, and HilDY212A to PhilA, upon incubation with the indicated concentrations of C26.

[9] = tested on: HilD mutants; assay: EMSA, binding of HilD mutants to PhilA; assay type: biochemical, S. Typhimurium; settings: 600 nM protein
Description: as §3

[10] = tested on: S. enterica clinical isolates (SipA secretion through T3SS-1); assay: Plasmid-based SipA secretion assay in clinical isolates; assay type: cell-based; settings: C26 100 μM, 75 strains
Description: The plasmid pT10-SipA-NLuc was electroporated into electrocompetent cells of S. enterica clinical isolates. Bacteria at an initial OD600 of 0.02 were grown for 5 hours in 1 ml of LB supplemented with 0.3 M NaCl, kanamycin (50 μg/ml), and either compound at 100 μM or 1% (v/v) DMSO. Cultures were pelleted, and then 25 μl of the supernatant was transferred to a 384-well plate to measure luminescence as previously described.

[11] = target: T4, HilD (Salmonella typhimurium, UniProt E1WAC0); assay: Whole-cell HilD activity assay (PhilA-sfGFP activation); assay type: cell-based, S. Typhimurium; settings: C26 100 μM, strain overexpressing hilD
T4 construct: Strain PhilA-sfGFP and the isogenic ΔhilD PhilA-sfGFP were used for this purpose; endogenous in cells; host or cells: S. Typhimurium SL1344 strain PhilA-sfGFP
T4 sequence (E1WAC0 whole entry): as the sequence (P0CL08 whole entry) above

CN(CC(=O)NCc1ccc2c(c1)OCO2)Cc1ccc(Br)s1 [C26, N-(benzo[d][1,3]dioxol-5-ylmethyl)-2-{[(5-bromothiophen-2-yl)methyl](methyl)amino}acetamide]
IC50 [1]: 29.2 µM
TC50 viability ([2]; 12 hours exposure): could not be calculated because of low toxicity levels
TC50 viability ([2]; 18 hours exposure): 98 µM
Kd [3]: 30.2 µM
thermal stability of HilC [4]: no effect on the thermal stability
PhilA activation with hilC and/or rtsA as sole activators [5]: did not lead to a reduction of PhilA activation
DNA binding activity of HilD (hilA promoter) [6]: dose-dependent inhibition of the DNA binding activity
DNA binding activity of HilC (hilA promoter) [7]: no effect
HilDI100A binding to PhilA [8]: hindered
DNA binding ability of HilDL45A, HilDY46A, HilDY212A [9]: did not exert any effect
sensitivity of clinical isolates (SipA secretion) [10]: all sensitive
decrease of PhilA activation ([11]; WT background): 14%
decrease of PhilA activation ([11]; ΔhilD ΔhilC ΔrtsA background): 18%
